Assays:
I218V bsNOS = I218V bsNOS (Bacillus subtilis, UniProt O34453, I218V); details: read-out: I218V - KS; imidazole displacement; ref Wang et al., 2004; cited from earlier work
bsNOS (WT) = target: T1, bsNOS (WT) (Bacillus subtilis, UniProt O34453); details: read-out: WT - KS; imidazole displacement; ref Wang et al., 2004; cited from earlier work
T1 sequence (O34453 1-363): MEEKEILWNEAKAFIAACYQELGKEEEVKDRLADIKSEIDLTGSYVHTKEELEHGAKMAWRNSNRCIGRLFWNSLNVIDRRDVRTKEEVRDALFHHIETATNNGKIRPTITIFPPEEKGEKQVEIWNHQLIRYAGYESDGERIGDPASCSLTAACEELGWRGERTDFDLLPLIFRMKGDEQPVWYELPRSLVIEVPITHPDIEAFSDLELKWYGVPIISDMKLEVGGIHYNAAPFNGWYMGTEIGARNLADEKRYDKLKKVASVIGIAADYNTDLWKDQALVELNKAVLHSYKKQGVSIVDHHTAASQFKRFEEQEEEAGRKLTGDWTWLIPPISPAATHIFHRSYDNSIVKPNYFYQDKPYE

[1] = test system: bBiDomain (a chimera of bsNOS and redox partner YkuN); assay: bBiDomain single time point bacterial NOS activity inhibition; format: biochemical, Bacillus subtilis; details: inhibitor 30 µM, NOHA 200 µM, 4 min at 35 °C

Sequence of I218V bsNOS (O34453 whole entry I218V): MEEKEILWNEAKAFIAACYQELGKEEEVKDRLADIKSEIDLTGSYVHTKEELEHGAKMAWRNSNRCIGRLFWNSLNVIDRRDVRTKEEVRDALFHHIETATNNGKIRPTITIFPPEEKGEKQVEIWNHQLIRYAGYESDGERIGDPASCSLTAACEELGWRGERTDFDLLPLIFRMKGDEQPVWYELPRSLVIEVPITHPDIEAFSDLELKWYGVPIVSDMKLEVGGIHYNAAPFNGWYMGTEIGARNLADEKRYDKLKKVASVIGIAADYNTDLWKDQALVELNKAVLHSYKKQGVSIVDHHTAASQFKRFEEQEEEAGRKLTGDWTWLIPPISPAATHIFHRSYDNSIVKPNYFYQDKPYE

Row | Structure (SMILES) | Kd (I218V bsNOS) [µM] | Kd (bsNOS (WT)) [µM] | % nitrite (nitrite with inhibitor divided by nitrite without inhibitor) [1] [% nitrite]
1 | N=C(N)NCCC[C@H](N)C(=O)O [L-Arg] | 2 ± 0.2 | 4.8 ± 0.1 | 
2 | NC(=NCCC[C@H](N)C(=O)O)N[N+](=O)[O-] [L-NNA] |  |  | 40.9 ± 5.3

— PMC4475277 (Chemistry & biology, 2015)
